Tests used:
rat NaP2b (SLC34A2) = biological target: T1, rat NaP2b (SLC34A2) (Rattus norvegicus, UniProt Q9JJ09); test: NaP2b-mediated Pi transport: 33P phosphate uptake into transfected HEK293 cells; assay type: cell-based; conditions: 100 uM KH2PO4, PiT-silencing agent; for IC50: read-out: pIC50 range for rat Nap2b (converted)
T1 construct: host or cells: HEK293
T1 sequence (Q9JJ09 1-695): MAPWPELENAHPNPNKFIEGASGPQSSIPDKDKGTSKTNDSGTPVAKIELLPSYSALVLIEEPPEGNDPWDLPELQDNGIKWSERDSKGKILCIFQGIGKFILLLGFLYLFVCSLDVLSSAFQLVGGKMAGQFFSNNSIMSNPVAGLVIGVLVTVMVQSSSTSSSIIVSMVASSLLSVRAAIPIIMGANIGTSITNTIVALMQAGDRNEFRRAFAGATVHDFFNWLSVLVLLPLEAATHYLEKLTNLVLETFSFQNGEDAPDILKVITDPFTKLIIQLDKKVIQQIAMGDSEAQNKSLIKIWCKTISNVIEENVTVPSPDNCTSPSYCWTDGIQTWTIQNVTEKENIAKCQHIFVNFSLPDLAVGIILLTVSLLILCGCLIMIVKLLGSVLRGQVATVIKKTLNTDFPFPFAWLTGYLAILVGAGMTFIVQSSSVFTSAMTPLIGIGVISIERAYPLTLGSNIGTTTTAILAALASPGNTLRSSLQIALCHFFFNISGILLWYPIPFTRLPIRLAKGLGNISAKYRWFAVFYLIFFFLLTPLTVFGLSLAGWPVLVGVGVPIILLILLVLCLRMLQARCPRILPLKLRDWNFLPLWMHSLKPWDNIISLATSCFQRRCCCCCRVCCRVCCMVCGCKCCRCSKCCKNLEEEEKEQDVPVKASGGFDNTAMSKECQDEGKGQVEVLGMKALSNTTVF
Experimental: (§1) Materials. HEK293 cells were obtained from the American Type Culture collection and propagated per their instructions. Expression clones for rat and human NaP2b (SLC34A2) were obtained from Open Biosystems (Catalog numbers MRN1768-9510282, and MHS1010-99823026, respectively). The sequence of the human protein was mutated to insert a threonine after residue 37, and to introduce a N39D mutation.
(§2) Inhibition of Pi Transport. The rate of phosphate (Pi) uptake into HEK293 cells was measured using a modification of the method described by Mohrmann et al. (Mohrmann, I., Mohrmann, M., Biber, J., and Murer, H. (1986) Am. J. Phys. 250(3 Pt 1):G323-30.) Transfected HEK293 cells were treated with a pharmacological agent to minimize endogenous PiT-mediated phosphate transport activity, such that the only remaining sodium-dependent phosphate transport activity is that which was bestowed by introduction of the NaP2b genes.
(§3) Cells were seeded into 96-well plates at 25,000 cells/well and cultured overnight. Lipofectamine 2000 (Invitrogen) was used to introduce the NaP2b cDNA, and the cells were allowed to approach confluence during a second overnight incubation. […] Cells were then overlayed with either choline uptake buffer or sodium uptake buffer (14 mM Tris, 137 mM sodium chloride, 5.4 mM KCl, 2.8 mM CaCl2, 1.2 mM MgSO4, 100 uM KH2PO4, PiT-silencing agent, 1 mg/mL Bovine Serum Albumin, pH 7.4) containing 6-9 uCi/mL ^33P orthophosphoric acid (Perkin Elmer) and test compound. Each compound was tested at twelve concentrations ranging from 0.1 nM to 30 uM. Assays were run in duplicate.
(§4) After incubation for 3-30 minutes at room temperature, assay mixtures were removed, and the cells were washed twice with ice cold stop solution (137 mM sodium chloride, 14 mM Tris, pH 7.4). Cells were lysed by addition of 20 μL 0.1% Tween 80 followed by 100 μL scintillation fluid, and counted using a TopCount (Perkin Elmer).
(§5) pIC50 (the negative log of the IC50) values of the test compounds were calculated using GraphPad Prism.

human NaP2b (SLC34A2) = biological target: T2, human NaP2b (SLC34A2) (Homo sapiens, UniProt O95436); test: as above; assay type: cell-based; conditions: human protein with threonine inserted after residue 37 and N39D, 100 uM KH2PO4, read-out: pIC50 range for human Nap2b (converted)
T2 construct: host or cells: HEK293
T2 sequence (O95436 1-690): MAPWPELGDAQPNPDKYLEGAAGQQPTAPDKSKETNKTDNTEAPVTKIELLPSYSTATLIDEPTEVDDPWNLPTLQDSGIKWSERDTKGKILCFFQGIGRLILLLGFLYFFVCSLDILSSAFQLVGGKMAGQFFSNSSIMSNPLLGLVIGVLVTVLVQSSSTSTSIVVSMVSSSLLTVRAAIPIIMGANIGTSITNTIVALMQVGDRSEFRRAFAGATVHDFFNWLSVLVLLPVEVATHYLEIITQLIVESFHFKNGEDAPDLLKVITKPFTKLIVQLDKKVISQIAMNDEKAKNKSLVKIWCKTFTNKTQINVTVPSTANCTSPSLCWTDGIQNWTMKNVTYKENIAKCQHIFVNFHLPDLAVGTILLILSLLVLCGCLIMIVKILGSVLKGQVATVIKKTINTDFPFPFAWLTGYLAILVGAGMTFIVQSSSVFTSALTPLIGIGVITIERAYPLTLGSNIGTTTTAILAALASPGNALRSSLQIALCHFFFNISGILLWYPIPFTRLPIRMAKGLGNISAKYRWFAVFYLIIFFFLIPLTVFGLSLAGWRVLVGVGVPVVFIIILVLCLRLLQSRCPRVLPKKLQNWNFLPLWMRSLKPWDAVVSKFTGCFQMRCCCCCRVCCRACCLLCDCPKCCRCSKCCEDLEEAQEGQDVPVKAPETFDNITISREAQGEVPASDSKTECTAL
Experimental: as §1, §2, §3, §4, §5

[1] = Fecal recovery of orally administered compounds; assay type: in vivo, Sprague-Dawley rats; conditions: rats, oral gavage, feces 0-48 hr after dosing
Experimental: Quantitative determination of test compound level in feces after oral gavage was performed using the same set of animals used to determine test compound concentration in plasma (Example 30). The animals were kept in metabolic cages and feces were collected from the time of dosing until 48 hr after dosing. Upon collection, feces was dried by lyophilization and ground to a visually homogenous powder. Duplicate samples of ground feces from each individual animal were weighed out and extracted using organic solvent. Extracted samples were then diluted into mobile phase and test compound levels were quantitatively determined by LC-MS/MS analysis as described in “Example 30” except that the standard curve was prepared in a feces matrix. Extraction conditions were not optimized for individual compounds, and thus may represent a minimal level of recovery.

[2] = tested on: Uptake of Phosphate from the Intestine; test: In vivo bolus phosphorus challenge; design: species or system Sprague-Dawley rats; conditions: rats on low-phosphorus diet, oral drug dose 30 (unit not given) 15 min before phosphate bolus, serum 30 min post bolus
Experimental: By pretreating animals with a low phosphorus diet followed by the subsequent dosing of a phosphorus bolus, serum phosphorus levels were monitored after 30 minutes as a surrogate for intestinal phosphorus absorption. […] The in vivo bolus phosphorus challenge model used here mimics this model in rats.
Male, 7-week-old Sprague-Dawley rats (Charles-River laboratories international, Hollister, Calif.) were allowed to acclimatize for a minimum of 3 days before switching to a synthetic low-phosphorus diet (TD.85010, Harlan Teklad, Madison, Wis.) which contains 0.1% phosphorus and 0.6% calcium. At day 5, testing compounds or vehicle alone (as indicated) were orally administered at the indicated dose in a volume of 5 ml/kg, followed by a bolus gavage of monobasic sodium phosphate (1 mmol in 1 ml) 15 min after compound dosing. Serum was collected via retroorbital bleeding 30 min post phosphate bolus and phosphate levels were determined utilizing an ACE ALERA blood chemistry analyzer (Alfa Wassermann Diagnostic Technologies, West Caldwell, N.J.).
The extent of inhibition by test compounds on the elevation of serum phosphate levels in response to the bolus of phosphate is shown in Table 3 (data are expressed as % Inhibition, with 6-10 animals per data point). The differences between groups were evaluated by one-way analysis of variance with Dunnett's post hoc tests.

[3] = Determination of compound Cmax and AUC after oral gavage; assay type: in vivo, Sprague-Dawley rats; conditions: Sprague-Dawley, rat plasma, sampling 0.5-4 h
Experimental: Sprague-Dawley rats were orally gavaged with test article at a nominal dose of 2.5 or 10 mg/kg and blood was collected at 0.5, 1, 2 and 4 h. Blood samples were processed to plasma using K2EDTA as an anticoagulant. Plasma samples were treated with acetonitrile containing an internal standard, precipitated proteins removed by centrifugation. Supernatants were analyzed by LC-MS/MS and compound concentrations were determined by interpolated from a standard curve prepared in plasma. All compounds were orally dosed at the dosage shown, and pharmacokinetic parameters determined

NaPi2b = test: Competition with phosphate: uptake assay repeated at 2.1 vs 0.1 mM phosphate; assay type: cell-based; conditions: potency for inhibition of NaPi2b at 2.1 vs 0.1 mM phosphate
Excerpt: In certain preferred embodiments, the phosphate transport inhibitors of the present invention are not competitive inhibitors with respect to phosphate of Na/phosphate co-transport. In certain other preferred embodiments, the phosphate transport inhibitors of the invention are non-competitive inhibitors. Non-competitive inhibitors maintain their degree of inhibition irrespective of the local phosphate concentration. This feature is an important aspect in providing an efficient blockade of intestinal transport in postprandial state, where the local concentration of dietary phosphate can attain concentration as high as 10 mM. It is believed that competitive inhibitors are too sensitive to local phosphate concentration and unable to block phosphate uptake following a high phosphorus meal. Various methods are available for determining whether a phosphate transport inhibitor is non-competitive or competitive. For example, a phosphate uptake assay can be performed and the IC50 values for a compound at different phosphate concentrations can be determined (e.g., “Enzyme kinetics”, I. Segel, 1975, John-Wiley & Sons, p. 123). IC50 values for non-competitive inhibitors will remain the same or similar with respect to the phosphate concentration, whereas IC50 values for competitive inhibitors will increase (i.e. lose potency) as phosphate concentration increases.
To ascertain if an inhibitor was competitive for binding with phosphate, the procedure was repeated, but raising the concentration of the substrate in the assay mixture from 0.1 to 2.1 mM phosphate.

[4] = Stability in simulated gastric and intestinal fluid; assay type: in vitro ADME; conditions: 6 hr, 1-20 μM
Experimental: Test compounds were incubated at 1-20 μM in simulated gastric fluid (SGF; standard USP solution with 3 mg/mL pepsin) or simulated intestinal fluid (SIF; standard USP solution with 3 mg/mL pancreatin) for 3 hr or 6 hr. HPLC-UV or HPLC-MS were used to determine test compound levels using peak area %. Results (Table 5) were reported as the percentage of test compound remaining after incubation in a given condition relative to test compound present at t=0 in the same condition.

[5] = nominal 10 mg/kg (actual 7.6-11 mg/kg)
[6] = nominal 2.5 mg/kg (actual 1.9 mg/kg)

Row | SMILES | IC50 (rat NaP2b (SLC34A2)) [nM] | IC50 (human NaP2b (SLC34A2)) [nM] | % recovered in feces [1, 5] [%] | further results
1 | CN(CCN1CCOCC1)C(=O)c1cccc(C(=O)Nc2ccc(N3CCCCC3)cc2C(=O)Nc2nc(-c3cccc(C(F)(F)F)c3)n[nH]2)c1 [Example 1, N1-Methyl-N1-(2-morpholinoethyl)-N3-(4-(piperidin-1-yl)-2-((3-(3-(trifluoromethyl)phenyl)-1H-1,2,4-triazol-5-yl)carbamoyl)phenyl)isophthalamide] | < 1000 | < 1000 |  | 
2 | O=C(O)CCSCc1cccc(C(=O)Nc2ccc(N3CCCCC3)cc2C(=O)Nc2ccn(-c3cccc(C(F)(F)F)c3)n2)c1 [Example 7, 3-((3-((4-(Piperidin-1-yl)-2-((1-(3-(trifluoromethyl)phenyl)-1H-pyrazol-3-yl)carbamoyl)phenyl)carbamoyl)benzyl)thio)propanoic acid] | 1000 to 7940 | 1000 to 7940 | 9.5 | % Inhibition of Serum P elevation [2]: 49%
3 | CN(CCOCCOCCOCCC(=O)O)Cc1cccc(C(=O)Nc2ccc(N3CCCCC3)cc2C(=O)Nc2ccn(-c3cccc(C(F)(F)F)c3)n2)c1 [Example 17, 2-Methyl-1-(3-((4-(piperidin-1-yl)-2-((1-(3-(trifluoromethyl)phenyl)-1H-pyrazol-3-yl)carbamoyl)phenyl)carbamoyl)phenyl)-5,8,11-trioxa-2-azatetradecan-14-oic acid] | 1000 to 7940 | 1000 to 7940 |  | 
4 | O=C(O)c1cccc(SCc2cccc(C(=O)Nc3ccc(N4CCCCC4)cc3C(=O)Nc3ccn(-c4cccc(C(F)(F)F)c4)n3)c2)c1 [Example 18, 3-((3-((4-(Piperidin-1-yl)-2-((1-(3-(trifluoromethyl)phenyl)-1H-pyrazol-3-yl)carbamoyl)phenyl)carbamoyl)benzyl)thio)benzoic acid] | 1000 to 7940 |  | 60 | AUC [3, 6]: 2130 ng·h/mL; Cmax [3, 6]: 678 ng/mL; AUC [3, 5]: 6050 ng·h/mL; Cmax [3, 5]: 1820 ng/mL; % recovered in feces ([1]; dosed at 1.9 mg/kg): 12%; Competitive with respect to Pi? (NaPi2b): No
5 | O=C(O)Cc1cccc(SCc2cccc(C(=O)Nc3ccc(N4CCCCC4)cc3C(=O)Nc3ccn(-c4cccc(C(F)(F)F)c4)n3)c2)c1 [Example 23, 2-(3-((3-((4-(Piperidin-1-yl)-2-((1-(3-(trifluoromethyl)phenyl)-1H-pyrazol-3-yl)carbamoyl)phenyl)carbamoyl)benzyl)thio)phenyl)acetic acid] | < 1000 | < 1000 |  | 
6 | O=C(O)CCOCCOCCOCCNC(=O)c1cccc(C(=O)Nc2ccc(Cl)cc2C(=O)Nc2ccn(-c3cccc(C(F)(F)F)c3)n2)c1 [Example 25, 1-(3-((4-chloro-2-((1-(3-(trifluoromethyl)phenyl)-1H-pyrazol-3-yl)-carbamoyl)phenyl)carbamoyl)phenyl)-1-oxo-5,8,11-trioxa-2-azatetradecan-14-oic acid] |  |  | 17 | AUC [3, 5]: < 3 ng·h/mL; % remaining, SGF ([4]; simulated gastric fluid with 3 mg/mL pepsin): 58%; % remaining, SIF ([4]; simulated intestinal fluid with 3 mg/mL pancreatin): 95%
7 | O=C(O)P(=O)(O)O [PFA, reference compound] |  |  |  | pIC50 range for rat Nap2b (rat NaP2b (SLC34A2)): 2-3; Competitive with respect to Pi? (NaPi2b): Yes
